# Like-named read-outs stand apart in the source and are kept apart here.
# Experiments:
# [1] = system: adjuvant-induced arthritis in male Lewis rats; assay: Established adjuvant-induced arthritis test; format: in vivo, rat; conditions: day 28 minus day 21, vehicle value in parentheses
# Method: IV. Adjuvant-induced Arthritis
# Male Lewis rats (120-140 g) received 0.1 mg myeobacterium brityricum (0.5% ow/v) heavy mineral oil containing 0.2% digitonin administered in the base of the tail and the resulting arthritis was allowed to develop for 21 days (Coffey and Salvador, 1981). The combinded volumes of both hind paws were measured using a water plethysmograph by immersion of the paws to the level of the lateral malleolus. The animals were divided into drug-treatedand vehicle (control) groups (six rats per group) with approximately equal volumes of both hind paws. On day 21, body weights were recorded and the i.p. or p.o. vehicle and drug were then administered daily for seven days. On day 28, the final day of the experiment, heparinized (0.2 units/100 μl) blood was also collected for measurement of plasma fibrinogen concentrations (Goodwin, 1961). The changes in paw volume and body weight were calculated as paw volume or body weight at day 28 minus paw volume or body weight at day 21. Values are reported as means ± S.E. for n=6. Plasma fibrinogen concentration was quantitated according to Goodwin et al. (1961) and is expressed in mg/dl. Statistical differences between measurement parameters of the drug-treated and control groups were determined using Students's t-test.
# cellular PLA2 = assay: Inhibition of Cellular Phospholipase A2 (A23187-stimulated macrophages); format: cell-based; conditions: rat peritoneal macrophages, A-23187 stimulated
# Method: II. Inhibition of Cellular Phospholipase A2. - % Inhibition of Cellular PLA2
# Resident macrophages were obtained from rats by peritoneal lavage with phosphate buffered saline minus Ca2^++ and Mg2^++ (PBS). Cells were washed 3 times with PBS and resuspended in Dulbecco's Modified Eagle's Medium (GiBco) containing L-glutamine low D-glucose (1000 mg/L), and sodium pyruvate (110 mg/L), supplemented with 10% fetal calf serum. Cells were counted on a Coulter ZBI cell counter and then resuspended to a concentration of 6×10^6 cells/1.5 ml. The cell suspension (1.5 ml culture dishes (35 mm) and the cells were allowed to adhere to the dishes for 90 minutes at 37° C. Dishes were washed 3 times with PBS to remove non-adherent cells. [^14 C]arachidonic acid ([^14 C]-AA, approximately […], were added to the cells (1 uCi/dish) and allowed to incorporate for 120 minutes. Medium containing unincorporated [^14 C]-AA was removed and the cell layer was again washed 3 times with PBS. Inhibitors were dissolved in dimethylsulfoxide (DMSO) and added directly to the macrophages in Hank's Balanced Salt Solution (GiBco) phosphate-buffered, pH 7.4) to obtain the desired final concentration. Cells were incubated with drug or DMSO for 30 minutes at 37° C. and were then stimulated with calcium-ionophore A-23187 (0.75 uM) for 20 minutes. The extracellular medium was removed and the [^14 C] radioactivity released into this medium from AA metabolism was measured by liquid scintillation spectroscopy. The amounts of LTB4 and PGE2 were measured in the extracellular medium by radio immunoassay with specific antisera. The effects of inhibitor were measured as percent inhibition of A23187- stimulated AA metabolite release (^14 C release, PGE2 and LTB4 production) (control) which were calculated from the formula: [formula] IC50 's were calculated as described in the HSF-PLA2 assay.
# [2] = system: carrageenan-induced paw edema in rats; assay: Carrageenan-induced paw edema model of inflammation; format: in vivo; conditions: rat; for inhibition in vivo at 100 mg/kg: 100 mg/Kg po; for inhibition in vivo at 3 mg/kg: 3 mg/Kg ip
# [3] = biological target: T1, PLA2 activity in human synovial fluid (HSF) (Homo sapiens, UniProt P14555); assay: Phospholipase A2 (PLA2) enzymatic assay - % Inhibition of HSF-PLA2; format: biochemical; conditions: for inhibition at 5 µM: read-out: % Inhib. of HSF-PLA2 at 5 μM; for IC50: human synovial fluid PLA2, 30 min at 37° C., pH 7.3
# T1 construct: Synovial fluid was obtained from patients with rheumatoid arthritis; from tissue; host or cells: cell-depleted synovial fluid of patients with rheumatoid arthritis
# T1 sequence (P14555 21-144): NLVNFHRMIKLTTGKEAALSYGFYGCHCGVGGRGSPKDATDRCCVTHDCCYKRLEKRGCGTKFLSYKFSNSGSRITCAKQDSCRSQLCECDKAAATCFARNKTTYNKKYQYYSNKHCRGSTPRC
# Source text: 1, Phospholipase A2 (PLA2) enzymatic assay - % Inhibition of HSF-PLA2
# PLA2 assay procedure described by Hope et al., Inflammation 14:543-559 (1.990) was utilized to measure the inhibitory activity of the invention (inhibitor) against PLA2 activity in human synovial fluid (HSF). Synovial fluid was obtained from patients with rheumatoid arthritis. The assay procedure measured the release of [1-^14 C]oleic acid from the sn-2 position of phospholipids in autoclaved Escherichia coli previously grown in media containing [1-^14 C]oleic acid. The standard assay reaction conditions included 1×10^9 Escherichia coil (10,000 dpm ^14 C), 0.15% (v/v) cell-depleted HSF, (which was equivalent to 66 μg protein/mL) 2 mM CaCl2, 150 mM NaCl, 50 mM sodium (N-[2-hydroxyethyl] piperazine-N'-[2-ethanesulfonate]) (HEPES) buffer (pH 7.3), 1% dimethyl sulfoxide (DMSO) and various concentrations of inhibitor in a total volume of 0.5 ml. Inhibitors were dissolved in DMSO and added. The reaction was initiated by addition of HSF, incubated for 30 min at 37° C. and then stopped by addition of 2.5 ml of chloroform/methanol (1:1.5, v/v). The total lipids were extracted by the method of Bligh, E. G., and Dyer, W. J, Can. J. Biochem. Physiol. 37:911-917 (1959) by the further addition of 0.5 mL of chloroform and 1 mL of water with mixing. The lipid extract was redissolved in chloroform/methanol (9:1, v/v) containing 10 ug of carrier oleic acid. The oleic acid was separated from phospholipids by thin layer chromatography using gel-impregnated glass fiber sheets (ITLC type SG sheets). The sheets were preactivated by heating at 110° C. for 30 min. The lipid extract was applied to the sheets and chromatographed for 6 minutes, using hexane/acetic acid (100:1, v/v). The positions on the sheet containing oleic acid and phospholipids were visualized by exposure to iodine vapor and located by comparison to standards. The oleic acid and phospholipid zones were cut from the sheets, shaken individually with 2 ml of ethanol/water (80:20, v/v) and 15 ml of Aquasol, then counted for [^14 C] radioactivity (dpm). PLA2 activity, expressed as percent hydrolysis, was calculated from the formula: [formula] and was corrected for nonenzymatic hydrolysis of the substrate. Percent inhibition due to the presence of drug was calculated from the formula: [formula]
# When various concentrations of a Compound of Formula I were tested, the percent inhibition at each concentration was plotted as log concentration (abscissa) versus percent inhibition (ordinate) and the IC50 was determined from this plot.
# [4] = system: PLA2-induced rat paw edema (PLA2 purified from Naja naja snake venom); assay: PLA2-induced rat paw edema model of inflammation; format: in vivo
# [5] = 2 hr, read-out: Carrageenan ind. paw edema % Inhib. 2 hr
# [6] = 10 mg/Kg ip, 2 hr, read-out: Carrageenan ind. paw edema % Inhib. 2 hr
Compound,Change of body wt. (vehicle) ([1]; 30 mg/Kg po daily seven days) [g],% Inhib. of cellular PLA2 at 5 μM (cellular PLA2) [%],"inhibition in vivo at 100 mg/kg [2, 5] [%]",inhibition at 5 µM [3] [%],IC50 (cellular PLA2) [µM],IC50 [3] [µM],Change of paw volume (vehicle) ([1]; 30 mg/Kg po daily seven days) [mL],other results
"CCCCCCCCC1CCCc2c1n(CCCCCCCC)c1ccc(Oc3ccc(C(=O)O)o3)cc21 (racemic) [Example 154, rac-5-[(1,2,3,4-tetrahydro-1,9-dioctyl-9H-dibenzo[b,d]pyrrol-6-yl)oxy]-2-furancarboxylic acid]",10,78,49,81,–,–,–,"inhibition in vivo at 30 mg/kg ([2]; 30 mg/Kg ip, 2 hr, read-out: Carrageenan ind. paw edema % Inhib. 2 hr): 45%"
"CCCCCCCCn1c2c(c3cc(/C=C/c4ccc(C(=O)O)o4)ccc31)CCCC2 [Example 43, (E)-5-[2-(1,2,3,4-tetrahydro-9-octyl-9H-dibenzo[b,d]pyrrol-6-yl)ethenyl]-2-furancarboxylic acid]",–,–,29,–,0.5,6,–,"Change of body wt. (vehicle) ([1]; 10 mg/Kg ip daily seven days): 12 g; Change of paw volume (vehicle) ([1]; 10 mg/Kg ip daily seven days): -0.18 mL; Change of body wt. (vehicle) ([1]; 100 mg/Kg po daily seven days): 12 g; Change of paw volume (vehicle) ([1]; 100 mg/Kg po daily seven days): -0.29 mL; PLA2-ind. paw edema % Inhib 2 hr ([4]; 50 mg/Kg ip): 60%; inhibition in vivo at 50 mg/kg ([2]; 50 mg/Kg ip, 2 hr, read-out: Carrageenan ind. paw edema % Inhib. 2 hr): 40%; inhibition at 10 µM ([3]; 10 μM (footnote a), read-out: % Inhib. of HSF-PLA2 (a: % Inhibition at 10 μM)): 90%"
"CCCCCCCCn1c2c(c3cc(/C=C/c4ccc(C(=O)O)o4)ccc31)CCCC2(C)C [Example 44, (E)-5-[2-(1,2,3,4-tetrahydro-1,1-dimethyl-9-octyl-9H-dibenzo[b,d]pyrrol-6-yl)ethenyl]-2-furancarboxylic acid]",5,62,36,71,4,2.5,0.68,"PLA2-ind. paw edema % Inhib 2 hr ([4]; 30 mg/Kg ip): 71%; PLA2-ind. paw edema % Inhib 2 hr ([4]; 100 mg/Kg po): 27%; inhibition in vivo at 10 mg/kg [2, 6]: 57%"
"CCCCCCCCn1c2c(c3cc(/C=C\c4ccc(C(=O)O)o4)ccc31)CCCC2 [Example 51, (Z)-5-[2-(1,2,3,4-tetrahydro-9-octyl-9H-dibenzo[b,d]pyrrol-6-yl)ethenyl]-2-furancarboxylic acid]",–,85,72,67,2,4,–,"Change of body wt. (vehicle) ([1]; 10 mg/Kg po daily seven days): 6 g; Change of paw volume (vehicle) ([1]; 10 mg/Kg po daily seven days): 0.71 mL; inhibition in vivo at 1 mg/kg ([2]; 1 mg/Kg ip, 2 hr, read-out: Carrageenan ind. paw edema % Inhib. 2 hr): 70%"
"CCCCCCCCn1c2c(c3cc(/C=C\c4ccc(C(=O)O)o4)ccc31)CCCC2(C)C [Example 52, (Z)-5-[2-(1,2,3,4-tetrahydro-1,1-dimethyl-9-octyl-9H-dibenzo[b,d]-pyrrol-6-yl)ethenyl]-2-furancarboxylic acid]",13,66,–,73,–,–,0.66,"inhibition in vivo at 10 mg/kg [2, 6]: 50%"
"CCCCCCCCn1c2c(c3cc(Oc4ccc(C(=O)O)o4)ccc31)CCCC2 [Example 132, 5-[(1,2,3,4-tetrahydro-9-octyl-9H-dibenzo[b,d]pyrrol-6-yl)oxy]-2-furancarboxylic acid]",–,97,65,79,1,4,–,"Change of body wt. (vehicle) ([1]; 10 mg/Kg po daily seven days): 13 g; Change of paw volume (vehicle) ([1]; 10 mg/Kg po daily seven days): 0.48 mL; PLA2-ind. paw edema % Inhib 2 hr ([4]; 100 mg/Kg po): 34%; inhibition in vivo at 3 mg/kg [2, 5]: 45%"
"CCCCCCCCn1c2c(c3cc(Cc4ccc(C(=O)O)o4)ccc31)CCCC2 [Example 160, 5-[(1,2,3,4-tetrahydro-9-octyl-9H-dibenzo[b,d]pyrrol-6-yl)methyl]-2-furancarboxylic acid]",4,94,–,49,–,–,0.47,"PLA2-ind. paw edema % Inhib 2 hr ([4]; 30 mg/Kg ip): 49%; inhibition in vivo at 3 mg/kg [2, 5]: 46%; inhibition in vivo at 10 mg/kg ([2]; 10 mg/Kg po, 2 hr, read-out: Carrageenan ind. paw edema % Inhib. 2 hr): 50%"
"(E)-5-[2-(1,2,3,4-tetrahydro-3,3dimethyl-9-octyl-9 H-dibenzo[b,d]-pyrrol-6yl)ethenyl]-2-furancarboxylic acid [Example 45]",–,53,–,–,–,–,–,Carrageenan ind. paw edema % Inhib. 2 hr ([2]; 20 mg/Kg ip): 46%; % Inhib. of HSF-PLA2 at 5 μM ([3]; 5 μM): 86%
